Measurements reported in article PMC9732821, “Neurotrophic Activity and Its Modulation by Zinc Ion of a Dimeric Peptide Mimicking the Brain-Derived Neurotrophic Factor N-Terminal Region” (ACS Chemical Neuroscience, 2022).

System: ERK
Assay: competition experiments, ERK phosphorylation with BDNF plus d-bdnf in differentiated SH-SY5Y cells
Format: cell-based, human
Settings: BDNF 1 nM + d-bdnf 10 nM-100 µM, or d-bdnf 10 µM + BDNF 0.074 nM–10 nM; 10 min; 2 independent replicas
From the text: The possibility of mimicking the function of the full-length BDNF protein by using a linear peptide fragment encompassing the first 12 amino acids of the mature NT N-terminal was already postulated.[31] Here, we named this sequence as m-bdnf (Figure 1A) and performed a systematic comparison between the performance of the full-length human BDNF produced recombinantly in Escherichia coli([32]) and (i) m-bdnf, (ii) a dimeric peptide displaying two copies of the m-bdnf sequence covalently bound by a disulfide bridge (d-bdnf), and (iii) a monomeric peptide displaying the scrambled sequence of m-bdnf (s-bdnf). We first investigated the ability of these peptides to activate the TrkB receptor. […] Specifically, an EC50 concentration of BDNF (1 nM) or of d-bdnf (10 μM) was used in combination with the increasing concentration of d-bdnf and BDNF, respectively, and the increase of ERK phosphorylation was assessed. […] Of note, we also performed a non-permeabilizing immunofluorescence analysis to quantify the membrane-bound BDNF in differentiated SH-SY5Y cells in the absence or presence of BDNF and d-bdnf (Figure S1C,D). […] The same increment was not observed upon treatment with the d-bdnf peptide, while instead we measured a slight (∼18%) decrease of the signal possibly due to the ability of the peptide to displace endogenous BDNF at the tested dose (10 μM). […]

“HSDPARRGELSVC-C-VSLEGRRAPDSH (disulfide) [d-bdnf]” was tested, and the “competition / additivity on ERK phosphorylation” value was “neither antagonist nor additive effects”.
